Experimental findings from patent publication US20090325964A1, “Piperazine Metabotropic Glutamate Receptor 5 (MGLUR5) Negative Allosteric Modulators For Anxiety/Depression” (Wyeth, priority 2008, published 2009) are described below.

Bounds are passed on as bounds.

In the first assay the target is T1, rat mGluR5 receptor (Rattus norvegicus, UniProt P31424).
T1 construct: expressed in transfected cells; host or cells: HEK-293
T1 sequence (P31424 21-1203): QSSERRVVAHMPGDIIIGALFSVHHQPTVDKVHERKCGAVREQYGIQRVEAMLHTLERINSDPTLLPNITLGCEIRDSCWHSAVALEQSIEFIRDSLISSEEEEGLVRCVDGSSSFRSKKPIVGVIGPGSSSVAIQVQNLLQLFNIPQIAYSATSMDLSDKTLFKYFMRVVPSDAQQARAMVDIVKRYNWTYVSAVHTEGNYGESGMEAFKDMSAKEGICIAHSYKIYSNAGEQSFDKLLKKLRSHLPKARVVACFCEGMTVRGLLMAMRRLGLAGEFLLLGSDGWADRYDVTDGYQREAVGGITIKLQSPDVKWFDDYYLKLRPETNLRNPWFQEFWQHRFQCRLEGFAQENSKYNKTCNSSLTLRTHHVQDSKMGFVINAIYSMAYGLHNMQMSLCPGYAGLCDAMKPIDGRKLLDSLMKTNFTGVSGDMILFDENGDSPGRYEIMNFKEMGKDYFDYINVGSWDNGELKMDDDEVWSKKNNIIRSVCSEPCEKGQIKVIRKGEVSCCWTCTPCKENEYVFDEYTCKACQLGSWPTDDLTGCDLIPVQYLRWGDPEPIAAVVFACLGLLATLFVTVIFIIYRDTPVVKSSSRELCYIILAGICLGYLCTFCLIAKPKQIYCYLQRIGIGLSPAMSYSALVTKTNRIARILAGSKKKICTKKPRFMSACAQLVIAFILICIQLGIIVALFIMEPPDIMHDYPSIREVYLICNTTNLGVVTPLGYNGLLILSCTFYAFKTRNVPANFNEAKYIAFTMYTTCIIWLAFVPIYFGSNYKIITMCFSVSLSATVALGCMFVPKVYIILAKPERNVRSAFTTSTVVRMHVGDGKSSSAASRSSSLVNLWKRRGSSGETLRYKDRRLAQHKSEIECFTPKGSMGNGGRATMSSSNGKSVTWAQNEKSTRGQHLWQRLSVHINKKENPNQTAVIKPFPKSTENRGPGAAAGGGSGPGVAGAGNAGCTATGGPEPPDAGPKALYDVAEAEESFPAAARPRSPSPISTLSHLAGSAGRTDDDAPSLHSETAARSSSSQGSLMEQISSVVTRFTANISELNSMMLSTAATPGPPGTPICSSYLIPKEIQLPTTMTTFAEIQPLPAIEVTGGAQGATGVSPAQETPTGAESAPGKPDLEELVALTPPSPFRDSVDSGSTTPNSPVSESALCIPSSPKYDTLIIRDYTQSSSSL
Briefly: [3H]-MPEP displacement binding assay, HEK-293 cell membranes expressing rat mGluR5. The note with it: [3H]-MPEP displacement, rat mGluR5; no Ki given; read-out: IC50 (printed in the Median Ki column instead of a Ki). Summed up:
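Membranes from HEK-293 cells expressing rat mGluR5 (12-25 μg protein), incubated 60 min at room temperature with 4 nM [3H]-MPEP in 50 mM Tris pH 7.5, then filtered. Nonspecific binding defined with 10 μM MPEP.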
Regarding `COc1ccc(C(=O)N2CCN(S(=O)(=O)Cc3ccccc3)CC2)cc1C#Cc1ccccn1` [Compound 234, 1-(benzylsulfonyl)-4-[4-methoxy-3-(pyridin-2-ylethynyl)benzoyl]piperazine], the IC50 is more than 10000 nM. In the case of `COc1ccc(C(=O)N2CCN(c3ccc(F)cc3S(C)(=O)=O)CC2)cc1C#Cc1ccccn1` [Compound 240, 1-[4-fluoro-2-(methylsulfonyl)phenyl]-4-[4-methoxy-3-(pyridin-2-ylethynyl)benzoyl]piperazine], the IC50 was more than 10000 nM. As to `COc1ccc(C(=O)N2CCN(S(=O)(=O)c3ccc(-n4cnnn4)c(OC)c3)CC2)cc1C#Cc1ccccn1` [Compound 272, 1-[4-methoxy-3-(pyridin-2-ylethynyl)benzoyl]-4-{[3-methoxy-4-(1H-tetrazol-1-yl)phenyl]sulfonyl}piperazine], the IC50 was more than 10000 nM. For the compound `COc1ccc(C(=O)N2CCN(c3nc4ccc([N+](=O)[O-])cc4s3)CC2)cc1C#Cc1ccccn1` [Compound 282, 2-{4-[4-methoxy-3-(pyridin-2-ylethynyl)benzoyl]piperazin-1-yl}-6-nitro-1,3-benzothiazole], the IC50 was more than 10000 nM.

Staying with this assay, now noted: [3H]-MPEP displacement, rat mGluR5; read-out: Median Ki.
`COc1ccc(C(=O)N2CCN(c3ccc(C(F)(F)F)cc3)CC2)cc1C#Cc1ccccn1` [Compound 228, 1-[4-methoxy-3-(pyridin-2-ylethynyl)benzoyl]-4-[4-(trifluoromethyl)phenyl]piperazine]: the Ki turned out to be 674 nM. For `COc1ccc(C(=O)N2CCN(c3ccccc3OC)CC2)cc1C#Cc1ccccn1` [Compound 230, 1-(2-methoxyphenyl)-4-[4-methoxy-3-(pyridin-2-ylethynyl)benzoyl]piperazine], the Ki was determined as 734 nM. As for `COc1ccc(C(=O)N2CCN(c3ccc(S(C)(=O)=O)cc3)CC2)cc1C#Cc1ccccn1` [Compound 238, 1-[4-methoxy-3-(pyridin-2-ylethynyl)benzoyl]-4-[4-(methylsulfonyl)phenyl]piperazine], the Ki was 521 nM. Regarding `COc1ccc(C(=O)N2CCN(S(=O)(=O)c3ccc(Cl)c(Cl)c3)CC2)cc1C#Cc1ccccn1` [Compound 239, 1-[(3,4-dichlorophenyl)sulfonyl]-4-[4-methoxy-3-(pyridin-2-ylethynyl)benzoyl]piperazine], the Ki worked out at 1410 nM.

With `COc1ccc(C(=O)N2CCN(c3cc(C)ccc3C)CC2)cc1C#Cc1ccccn1` [Compound 242, 1-(2,5-dimethylphenyl)-4-[4-methoxy-3-(pyridin-2-ylethynyl)benzoyl]piperazine], the Ki worked out at 1010 nM. As for `COc1ccc(C(=O)N2CCN(c3ccccc3C(F)(F)F)CC2)cc1C#Cc1ccccn1` [Compound 246, 1-[4-methoxy-3-(pyridin-2-ylethynyl)benzoyl]-4-[2-(trifluoromethyl)phenyl]piperazine], the Ki is 2840 nM. As to `COc1ccc(C(=O)N2CCN(C(=O)C3CCCO3)CC2)cc1C#Cc1ccccn1` (centres unmarked) [Compound 249, 1-[4-methoxy-3-(pyridin-2-ylethynyl)benzoyl]-4-(tetrahydrofuran-2-ylcarbonyl)piperazine], the Ki is 181 nM. As to `COc1ccc(C(=O)N2CCN(c3sc(S(N)(=O)=O)cc3[N+](=O)[O-])CC2)cc1C#Cc1ccccn1` [Compound 254, 5-{4-[4-methoxy-3-(pyridin-2-ylethynyl)benzoyl]piperazin-1-yl}-4-nitrothiophene-2-sulfonamide], the Ki worked out at 108 nM.

In the case of `COc1ccc(C(=O)N2CCN(c3cc4ccc(Cl)cc4cn3)CC2)cc1C#Cc1ccccn1` [Compound 260, 7-chloro-3-{4-[4-methoxy-3-(pyridin-2-ylethynyl)benzoyl]piperazin-1-yl}isoquinoline], the Ki turned out to be 951 nM. Turning to `COc1ccc(C(=O)N2CCN(c3cc4ccc(Br)cc4cn3)CC2)cc1C#Cc1ccccn1` [Compound 261, 7-bromo-3-{4-[4-methoxy-3-(pyridin-2-ylethynyl)benzoyl]piperazin-1-yl}isoquinoline], the Ki was found to be 1380 nM. Regarding `COc1ccc(C(=O)N2CCN(C(=O)c3ccccc3OC)CC2)cc1C#Cc1ccccn1` [Compound 263, 1-(2-methoxybenzoyl)-4-[4-methoxy-3-(pyridin-2-ylethynyl)benzoyl]piperazine], the Ki was 169 nM. On to `COc1cccc(C(=O)N2CCN(C(=O)c3ccc(OC)c(C#Cc4ccccn4)c3)CC2)c1` [Compound 264, 1-(3-methoxybenzoyl)-4-[4-methoxy-3-(pyridin-2-ylethynyl)benzoyl]piperazine], for which the Ki worked out at 106 nM. Same read-out and setting: then `COc1ccc(C(=O)N2CCN(S(=O)(=O)c3ccc(Br)s3)CC2)cc1C#Cc1ccccn1` [Compound 269, 1-[(5-bromo-2-thienyl)sulfonyl]-4-[4-methoxy-3-(pyridin-2-ylethynyl)benzoyl]piperazine], with 49 nM; and `COc1ccc(C(=O)N2CCN(S(=O)(=O)c3c(C)noc3C)CC2)cc1C#Cc1ccccn1` [Compound 270, 1-[(3,5-dimethylisoxazol-4-yl)sulfonyl]-4-[4-methoxy-3-(pyridin-2-ylethynyl)benzoyl]piperazine], with 1540 nM. Turning to `COc1ccc(C(=O)N2CCN(c3cc(Cl)cc(Cl)c3)CC2)cc1C#Cc1ccccn1` [Compound 271, 1-(3,5-dichlorophenyl)-4-[4-methoxy-3-(pyridin-2-ylethynyl)benzoyl]piperazine], the Ki was 18 nM. Still for that read-out and setting: with `COc1ccc(C(=O)N2CCN(S(=O)(=O)c3cccc4c(N(C)C)cccc34)CC2)cc1C#Cc1ccccn1` [Compound 273, 5-({4-[4-methoxy-3-(pyridin-2-ylethynyl)benzoyl]piperazin-1-yl}sulfonyl)-N,N-dimethylnaphthalen-1-amine] the figure was 1740 nM.

`COc1ccc(C(=O)N2CCN(c3nnc([N+](=O)[O-])s3)CC2)cc1C#Cc1ccccn1` [Compound 276, 1-[4-methoxy-3-(pyridin-2-ylethynyl)benzoyl]-4-(5-nitro-1,3,4-thiadiazol-2-yl)piperazine]: the Ki turned out to be 139 nM. The same measure, in the same setting: with `COc1ccc(C(=O)N2CCN(Cc3c(Cl)cccc3Cl)CC2)cc1C#Cc1ccccn1` [Compound 277, 1-(2,6-dichlorobenzyl)-4-[4-methoxy-3-(pyridin-2-ylethynyl)benzoyl]piperazine] the figure was 272 nM; with `COc1ccc(C(=O)N2CCN(S(=O)(=O)c3ccccc3Cl)CC2)cc1C#Cc1ccccn1` [Compound 278, 1-[(2-chlorophenyl)sulfonyl]-4-[4-methoxy-3-(pyridin-2-ylethynyl)benzoyl]piperazine], 876 nM; with `COc1ccc(C(=O)N2CCN(S(=O)(=O)c3cccc(Cl)c3)CC2)cc1C#Cc1ccccn1` [Compound 279, 1-[(3-chlorophenyl)sulfonyl]-4-[4-methoxy-3-(pyridin-2-ylethynyl)benzoyl]piperazine], 832 nM.

In the case of `COc1ccc(C(=O)N2CCN(c3nc(-c4ccccc4)ns3)CC2)cc1C#Cc1ccccn1` [Compound 281, 1-[4-methoxy-3-(pyridin-2-ylethynyl)benzoyl]-4-(3-phenyl-1,2,4-thiadiazol-5-yl)piperazine], the Ki was 197 nM. Take `COc1ccc(C(=O)N2CCN(c3nnc(-c4ncc([N+](=O)[O-])n4C)s3)CC2)cc1C#Cc1ccccn1` [Compound 283, 1-[4-methoxy-3-(pyridin-2-ylethynyl)benzoyl]-4-[5-(1-methyl-5-nitro-1H-imidazol-2-yl)-1,3,4-thiadiazol-2-yl]piperazine]: the inhibition constant Ki came out at 2310 nM.
